Values of other authors, collected in patent US20090162416A1, “Polymer implants for timed release of drugs with particular emphasis on ovulation or spermiation of fish” (priority 2007, published 2009).
Non-standard residues stand in square brackets, D forms with d. pGlu = O=C1CC[C@@H](C(=O)O)N1

Test system: seasonable ripe gravid female catfish
Conditions: 0.45 mg/lb of body weight

Substance: -Glp-His-Trp-Ser-Tyr-Gly-Leu-Arg-Pro-ethylamide- ([pGlu]HWSYGLRP-NHEt) [LHRH, nine amino acid synthetic polypeptide used to promote ovulation in catfish]
- time to ovulation after single injection: ≤ 12 h
